Assay results reported in patent US5512466A, “Control of fruit ripening and senescence in plants” (Monsanto Company, priority 1991, dated 1996).

Key:
[1] = system: ACC deaminase from Pseudomonas isolate 3F2 (gene SEQ ID NO:15, amino acid SEQ ID NO:16); details: read-out: Km (ACC); strain 3F2; crude desalted extract, Tris pH 8.0, 30° C., double reciprocal plot
Description: (§1) The Km for the ACC deaminases isolated from the various soil sources was determined using crude, desalted extracts. Individual strains of bacteria were grown in liquid media containing 4 g KH2 PO4, 6.5 g K2 HPO4, 1 g MgSO4.7H2 O, 2 g glucose, 1 mg FeSO4, 1 mg MnCl2, 1 mg ZnSO4, 1 mg CuSO4, 1 mg CaCl2, and 300 mg ACC, all in 1 liter H2 O. Cells were grown for 2 to 3 days at 30° C. Cells were pelleted by centrifugation and resuspended in extraction buffer containing 0.1M phosphate, pH 7.5, 1 mM EDTA, 0.1% β-mercaptoethanol. The cells were broken with a French Press, 1000 psi, and the cell debris was pelleted by centrifugation. […] Glycerol was added to the extract (20% v/v) and enzyme solutions were stored at -20° C. ACC deaminase enzyme assays were conducted as described in the Examples to follow. The assay mixture contained 100 μl of 0.2M Tris buffer, pH 8.0, 30 μl of 500 mM ACC solution, and enzyme solution to make a final volume of 200 μl. Reactions were run for 10 minutes at 30° C. The reaction was stopped with 1.8 ml of 2N HCl. After adding 300 μl 0.1% 2,4-dinitrophenylhydrazine, the mixture was incubated for 15 minutes at 30° C. The solution was then made basic by adding 2 ml of 2N NaOH. The optical density of the resulting brownish-red solution was determined at 540 nm with a spectrophotometer.
(§2) The kinetic value, Km, for ACC deaminase was determined against ACC as the enzyme substrate for each of the ACC deaminases isolated. […] An estimated Km was determined for each extracted enzyme with ACC at sub-saturating concentrations. […] Actual Km values were then determined for each extract using ACC concentrations between 0.2× and 2× of the estimated Km, or ACC concentrations between 1 and 10 mM ACC. Km values were calculated from double reciprocal plots, plotting the reciprocal of the substrate concentration on the x-axis and the reciprocal of the velocity (α-ketobutyrate formed) on the y-axis.

[2] = system: ACC deaminase from bacterial strain 388 (B27444, St. Charles soil, ACC enriched); details: read-out: Km (ACC), crude desalted extract, Tris pH 8.0, 30° C., double reciprocal plot
Description: as §1, §2

[3] = system: ACC deaminase from bacterial strain 391 (B27447, Malaysia soil); details: read-out: Km (ACC), crude desalted extract, Tris pH 8.0, 30° C., double reciprocal plot
Description: as §1, §2

[4] = system: ACC deaminase from bacterial strain 392 (B27448, Peru soil); details: read-out: Km (ACC), crude desalted extract, Tris pH 8.0, 30° C., double reciprocal plot
Description: as §1, §2

[5] = system: ACC deaminase from bacterial strain 393 (B27449, St. Charles soil); details: read-out: Km (ACC), crude desalted extract, Tris pH 8.0, 30° C., double reciprocal plot
Description: as §1, §2

[6] = system: ACC deaminase from bacterial strain 401 (B27457, St. Charles soil, ACC enriched); details: read-out: Km (ACC), crude desalted extract, Tris pH 8.0, 30° C., double reciprocal plot
Description: as §1, §2

[7] = system: ACC deaminase from bacterial strain PR-1 (B27813, Puerto Rico soil); details: read-out: Km (ACC), crude desalted extract, Tris pH 8.0, 30° C., double reciprocal plot
Description: as §1, §2

[8] = system: ACC deaminase from bacterial strain T44 (B27817, Tanzania soil); details: read-out: Km (ACC), crude desalted extract, Tris pH 8.0, 30° C., double reciprocal plot
Description: as §1, §2

Molecule `NC1(C(=O)O)CC1` [ACC, 1-aminocyclopropane-1-carboxylic acid] has a Km [1] of 5.8 mM, a Km [2] of 8.6 mM and a Km [3] of 17.4 mM. For the same molecule, the Km [4] was 7.1 mM, the Km [5] was 5.9 mM and the Km [6] was 7.8 mM. It also gave a Km [7] of 4.1 mM and a Km [8] of 11.8 mM.
